Reference: patent US12065436B2, “Cardiac sarcomere inhibitors” (Cytokinetics, Inc., priority 2018, dated 2024)

Target: bovine cardiac myofibrils (full-length cardiac myosin ATPase in the native sarcomere) (Bos taurus (Bovine), UniProt Q9BE39)
Test: Skinned bovine cardiac myofibril ATPase assay (PK/LDH-coupled)
Type: biochemical
Details: Ca2+ activating to 75% of maximal rate; for CDMF75 IC15: concentration giving 15% inhibition; for IC50: read-out: CDMF75 IC50
Method in brief: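 Inhibition of steady-state ATPase read at 340 nm through a PK/LDH-coupled NADH system (0.5 mM NADH, 1.5 mM PEP). Detergent-skinned bovine cardiac myofibrils, 1 mg/mL, were tested at pH 6.8 in PIPES/MgCl2 with 50 μM ATP and calcium adjusted to give pCa50 or pCa75 activation.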

bovine cardiac myofibrils (full-length cardiac myosin ATPase in the native sarcomere), sequence (Q9BE39 whole entry): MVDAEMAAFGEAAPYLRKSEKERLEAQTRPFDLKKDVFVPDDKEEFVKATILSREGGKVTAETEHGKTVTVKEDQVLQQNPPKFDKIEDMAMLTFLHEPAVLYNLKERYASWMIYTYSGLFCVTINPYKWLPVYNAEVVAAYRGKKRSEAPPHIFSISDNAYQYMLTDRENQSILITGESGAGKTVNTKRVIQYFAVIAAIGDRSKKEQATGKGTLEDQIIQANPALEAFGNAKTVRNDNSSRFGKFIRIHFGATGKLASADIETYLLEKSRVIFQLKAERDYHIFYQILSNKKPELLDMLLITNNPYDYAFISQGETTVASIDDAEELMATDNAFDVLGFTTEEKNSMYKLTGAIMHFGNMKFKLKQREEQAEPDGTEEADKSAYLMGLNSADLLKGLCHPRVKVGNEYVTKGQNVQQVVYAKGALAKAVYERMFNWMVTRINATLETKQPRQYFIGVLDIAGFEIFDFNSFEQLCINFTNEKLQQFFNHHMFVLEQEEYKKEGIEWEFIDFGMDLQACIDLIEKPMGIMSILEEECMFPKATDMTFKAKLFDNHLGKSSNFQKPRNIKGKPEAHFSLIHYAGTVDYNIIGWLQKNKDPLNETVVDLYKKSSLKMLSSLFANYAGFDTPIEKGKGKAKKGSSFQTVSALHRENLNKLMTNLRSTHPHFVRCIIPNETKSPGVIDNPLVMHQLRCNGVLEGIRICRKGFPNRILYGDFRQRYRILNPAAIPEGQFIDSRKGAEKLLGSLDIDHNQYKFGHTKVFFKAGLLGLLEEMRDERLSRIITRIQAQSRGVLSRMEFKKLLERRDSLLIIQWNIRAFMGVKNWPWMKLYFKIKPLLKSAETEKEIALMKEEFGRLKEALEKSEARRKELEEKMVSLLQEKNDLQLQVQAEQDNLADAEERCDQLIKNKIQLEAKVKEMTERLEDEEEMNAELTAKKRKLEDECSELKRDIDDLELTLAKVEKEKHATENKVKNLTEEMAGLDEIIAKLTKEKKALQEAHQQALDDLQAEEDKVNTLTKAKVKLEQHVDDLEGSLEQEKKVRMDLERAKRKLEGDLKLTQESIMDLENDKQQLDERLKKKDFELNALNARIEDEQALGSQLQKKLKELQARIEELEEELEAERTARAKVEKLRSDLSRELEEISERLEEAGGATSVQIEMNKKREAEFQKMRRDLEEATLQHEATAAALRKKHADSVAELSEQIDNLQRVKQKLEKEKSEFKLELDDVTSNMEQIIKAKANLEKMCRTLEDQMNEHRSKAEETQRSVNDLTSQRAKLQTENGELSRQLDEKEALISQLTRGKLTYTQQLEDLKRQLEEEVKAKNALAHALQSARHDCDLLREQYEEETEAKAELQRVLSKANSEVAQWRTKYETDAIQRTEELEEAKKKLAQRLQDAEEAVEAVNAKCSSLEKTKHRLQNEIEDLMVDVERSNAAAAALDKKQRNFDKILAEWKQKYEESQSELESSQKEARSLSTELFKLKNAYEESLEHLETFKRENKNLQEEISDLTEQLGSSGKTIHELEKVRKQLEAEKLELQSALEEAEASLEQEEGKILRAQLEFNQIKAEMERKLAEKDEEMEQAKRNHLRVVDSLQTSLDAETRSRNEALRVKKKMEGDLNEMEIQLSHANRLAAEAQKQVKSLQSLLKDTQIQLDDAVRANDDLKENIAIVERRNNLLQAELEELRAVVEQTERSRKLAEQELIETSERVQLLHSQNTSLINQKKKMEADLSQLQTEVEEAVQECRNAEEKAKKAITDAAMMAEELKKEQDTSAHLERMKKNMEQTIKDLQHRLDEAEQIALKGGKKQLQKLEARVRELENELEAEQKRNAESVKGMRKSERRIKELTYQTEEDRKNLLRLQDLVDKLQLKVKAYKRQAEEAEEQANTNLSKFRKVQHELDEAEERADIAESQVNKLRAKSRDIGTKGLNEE
bovine cardiac myofibrils (full-length cardiac myosin ATPase in the native sarcomere), sequence (P85100 whole entry partner): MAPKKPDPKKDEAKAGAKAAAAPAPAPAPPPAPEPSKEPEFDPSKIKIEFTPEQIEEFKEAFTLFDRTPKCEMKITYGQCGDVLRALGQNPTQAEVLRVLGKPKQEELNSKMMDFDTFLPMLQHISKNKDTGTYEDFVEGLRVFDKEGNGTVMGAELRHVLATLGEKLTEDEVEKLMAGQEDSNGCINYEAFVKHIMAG
bovine cardiac myofibrils (full-length cardiac myosin ATPase in the native sarcomere), sequence (Q3SZE5 whole entry partner): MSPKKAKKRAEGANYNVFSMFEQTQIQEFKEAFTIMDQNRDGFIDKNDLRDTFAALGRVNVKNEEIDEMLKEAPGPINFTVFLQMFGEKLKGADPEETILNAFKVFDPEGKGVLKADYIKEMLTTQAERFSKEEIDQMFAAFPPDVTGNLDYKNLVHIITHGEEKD

Row | Structure (SMILES) | CDMF75 IC15 | IC50
1 | Cc1cc(C(=O)N[C@@H]2CCc3cc(-c4noc(C(F)F)n4)ccc32)ncn1 [Compound 683, (R)-N-(5-(5-(difluoromethyl)-1,2,4-oxadiazol-3-yl)-2,3-dihydro-1H-inden-1-yl)-6-methylpyrimidine-4-carboxamide] | 1100 nM | 4600 nM
2 | COc1cc(C(=O)N[C@@H]2CCc3cc(-c4noc(C(F)F)n4)ccc32)ccn1 [Compound 684, (R)-N-(5-(5-(difluoromethyl)-1,2,4-oxadiazol-3-yl)-2,3-dihydro-1H-inden-1-yl)-2-methoxyisonicotinamide] | 1100 nM | 5000 nM
3 | O=C(N[C@@H]1CCc2cc(-c3noc(C(F)F)n3)ccc21)c1ccnc(C(F)F)c1 [Compound 685, (R)-2-(difluoromethyl)-N-(5-(5-(difluoromethyl)-1,2,4-oxadiazol-3-yl)-2,3-dihydro-1H-inden-1-yl)isonicotinamide] | 700 nM | 2600 nM
4 | Cc1nn(CCO)cc1C(=O)N[C@@H]1CCc2cc(-c3noc(C(F)F)n3)ccc21 [Compound 686, (R)-N-(5-(5-(difluoromethyl)-1,2,4-oxadiazol-3-yl)-2,3-dihydro-1H-inden-1-yl)-1-(2-hydroxyethyl)-3-methyl-1H-pyrazole-4-carboxamide] | 900 nM | 3100 nM
5 | Cc1cc(C(=O)N[C@@H]2CCc3cc(-c4noc(C(F)F)n4)ccc32)cnn1 [Compound 687, (R)-N-(5-(5-(difluoromethyl)-1,2,4-oxadiazol-3-yl)-2,3-dihydro-1H-inden-1-yl)-6-methylpyridazine-4-carboxamide] | 1000 nM | 4400 nM
6 | COCc1nc(-c2ccc3c(c2)CC[C@H]3NC(=O)c2cc(C)no2)no1 [Compound 688, (R)-N-(5-(5-(methoxymethyl)-1,2,4-oxadiazol-3-yl)-2,3-dihydro-1H-inden-1-yl)-3-methylisoxazole-5-carboxamide] | 1700 nM | 6800 nM
7 | COCc1nc(-c2ccc3c(c2)CC[C@H]3NC(=O)c2conc2C)no1 [Compound 689, (R)-N-(5-(5-(methoxymethyl)-1,2,4-oxadiazol-3-yl)-2,3-dihydro-1H-inden-1-yl)-3-methylisoxazole-4-carboxamide] | 600 nM | 2100 nM
8 | COCc1nc(-c2ccc3c(c2)CC[C@H]3NC(=O)c2cc(C)on2)no1 [Compound 690, (R)-N-(5-(5-(methoxymethyl)-1,2,4-oxadiazol-3-yl)-2,3-dihydro-1H-inden-1-yl)-5-methylisoxazole-3-carboxamide] | 4400 nM | 21300 nM
9 | COCc1nc(-c2ccc3c(c2)CC[C@H]3NC(=O)c2nonc2C)no1 [Compound 692, (R)-N-(5-(5-(methoxymethyl)-1,2,4-oxadiazol-3-yl)-2,3-dihydro-1H-inden-1-yl)-4-methyl-1,2,5-oxadiazole-3-carboxamide] | 1000 nM | 4600 nM
10 | COCc1nc(-c2ccc3c(c2)CC[C@H]3NC(=O)c2cc(OC)no2)no1 [Compound 693, (R)-3-methoxy-N-(5-(5-(methoxymethyl)-1,2,4-oxadiazol-3-yl)-2,3-dihydro-1H-inden-1-yl)isoxazole-5-carboxamide] | 900 nM | 3700 nM
11 | COCc1nc(-c2ccc3c(c2)CC[C@H]3NC(=O)c2cnn(CCO)c2C)no1 [Compound 694, (R)-1-(2-hydroxyethyl)-N-(5-(5-(methoxymethyl)-1,2,4-oxadiazol-3-yl)-2,3-dihydro-1H-inden-1-yl)-5-methyl-1H-pyrazole-4-carboxamide] | 1800 nM | 7000 nM
12 | COCc1nc(-c2ccc3c(c2)CC[C@H]3NC(=O)c2cn(CCO)nc2C)no1 [Compound 695, (R)-1-(2-hydroxyethyl)-N-(5-(5-(methoxymethyl)-1,2,4-oxadiazol-3-yl)-2,3-dihydro-1H-inden-1-yl)-3-methyl-1H-pyrazole-4-carboxamide] | 2100 nM | 7800 nM
13 | COCc1nc(-c2ccc3c(c2)CC[C@H]3NC(=O)c2cnc(C)s2)no1 [Compound 696, (R)-N-(5-(5-(methoxymethyl)-1,2,4-oxadiazol-3-yl)-2,3-dihydro-1H-inden-1-yl)-2-methylthiazole-5-carboxamide] | 1100 nM | 4200 nM
14 | COCc1nc(-c2ccc3c(c2)CC[C@H]3NC(=O)c2nnc(C)o2)no1 [Compound 698, (R)-N-(5-(5-(methoxymethyl)-1,2,4-oxadiazol-3-yl)-2,3-dihydro-1H-inden-1-yl)-5-methyl-1,3,4-oxadiazole-2-carboxamide] | 900 nM | 3500 nM
15 | CCc1nc(-c2cc3c(cc2F)[C@H](NC(=O)c2cnn(C)c2)CC3)no1 [Compound 699, (R)-N-(5-(5-ethyl-1,2,4-oxadiazol-3-yl)-6-fluoro-2,3-dihydro-1H-inden-1-yl)-1-methyl-1H-pyrazole-4-carboxamide] | 1700 nM | 7500 nM
16 | CCc1nc(-c2ccc3c(c2)CC[C@H]3NC(=O)c2cccc(C(O)CO)c2)no1 (stereo partly drawn) [Compound 700, 3-(1,2-dihydroxyethyl)-N-((R)-5-(5-ethyl-1,2,4-oxadiazol-3-yl)-2,3-dihydro-1H-inden-1-yl)benzamide] | 700 nM | 2600 nM
17 | O=C(N[C@@H]1COc2cc(-c3noc(C(F)F)n3)ccc21)c1cccc(CO)c1 [Compound 701, (S)-N-(6-(5-(difluoromethyl)-1,2,4-oxadiazol-3-yl)-2,3-dihydrobenzofuran-3-yl)-3-(hydroxymethyl)benzamide] | 300 nM | 1100 nM
18 | Cc1noc(-c2ccc3c(c2)CC[C@H]3NC(=O)c2cnc(C)n2C)n1 [Compound 702, (R)-1,2-dimethyl-N-(5-(3-methyl-1,2,4-oxadiazol-5-yl)-2,3-dihydro-1H-inden-1-yl)-1H-imidazole-5-carboxamide] | 2600 nM | 11700 nM
19 | Cc1noc(-c2ccc3c(c2)CC[C@H]3NC(=O)c2nnc(C)o2)n1 [Compound 703, (R)-5-methyl-N-(5-(3-methyl-1,2,4-oxadiazol-5-yl)-2,3-dihydro-1H-inden-1-yl)-1,3,4-oxadiazole-2-carboxamide] | 1700 nM | 6200 nM
20 | Cc1noc(-c2ccc3c(c2)CC[C@H]3NC(=O)c2cnn(CCO)c2C)n1 [Compound 704, (R)-1-(2-hydroxyethyl)-5-methyl-N-(5-(3-methyl-1,2,4-oxadiazol-5-yl)-2,3-dihydro-1H-inden-1-yl)-1H-pyrazole-4-carboxamide] | 2600 nM | 11400 nM
21 | Cc1cc(C(=O)N[C@@H]2CCc3cc(-c4nc(C)no4)ccc32)cnn1 [Compound 705, (R)-6-methyl-N-(5-(3-methyl-1,2,4-oxadiazol-5-yl)-2,3-dihydro-1H-inden-1-yl)pyridazine-4-carboxamide] | 4900 nM | 28100 nM
22 | Cc1noc(-c2ccc3c(c2)CC[C@H]3NC(=O)c2cccc(CO)c2)n1 [Compound 706, (R)-3-(hydroxymethyl)-N-(5-(3-methyl-1,2,4-oxadiazol-5-yl)-2,3-dihydro-1H-inden-1-yl)benzamide] | 600 nM | 2500 nM
23 | O=C(N[C@@H]1COc2cc(-c3noc(C(F)F)n3)ccc21)c1cc(CO)ccn1 [Compound 707, (S)-N-(6-(5-(difluoromethyl)-1,2,4-oxadiazol-3-yl)-2,3-dihydrobenzofuran-3-yl)-4-(hydroxymethyl)picolinamide] | 900 nM | 3600 nM
24 | O=C(N[C@@H]1COc2cc(-c3noc(C(F)F)n3)ccc21)c1cc(CO)ccn1 [Compound 708, (S)-N-(6-(5-(difluoromethyl)-1,2,4-oxadiazol-3-yl)-2,3-dihydrobenzofuran-3-yl)-4-(hydroxymethyl)picolinamide] | 600 nM | 2800 nM
25 | O=C(N[C@@H]1COc2cc(-c3noc(C(F)F)n3)ccc21)c1ccnc(CO)c1 [Compound 710, (S)-N-(6-(5-(difluoromethyl)-1,2,4-oxadiazol-3-yl)-2,3-dihydrobenzofuran-3-yl)-2-(hydroxymethyl)isonicotinamide] | 400 nM | 1900 nM
26 | COCc1nc(-c2ccc3c(c2)OC[C@H]3NC(=O)c2cccc(CO)c2)no1 [Compound 711, (S)-3-(hydroxymethyl)-N-(6-(5-(methoxymethyl)-1,2,4-oxadiazol-3-yl)-2,3-dihydrobenzofuran-3-yl)benzamide] | 800 nM | 2800 nM
27 | COCc1nc(-c2ccc3c(c2)OC[C@H]3NC(=O)c2cccc(CO)c2)no1 [Compound 712, (S)-3-(hydroxymethyl)-N-(6-(5-(methoxymethyl)-1,2,4-oxadiazol-3-yl)-2,3-dihydrobenzofuran-3-yl)benzamide] | 500 nM | 2400 nM
28 | COCc1nc(-c2ccc3c(c2)OC[C@H]3NC(=O)c2cc(CO)ccn2)no1 [Compound 713, (S)-4-(hydroxymethyl)-N-(6-(5-(methoxymethyl)-1,2,4-oxadiazol-3-yl)-2,3-dihydrobenzofuran-3-yl)picolinamide] | 2700 nM | 11000 nM
29 | COCc1nc(-c2ccc3c(c2)OC[C@H]3NC(=O)c2ccnc(CO)c2)no1 [Compound 714, (S)-2-(hydroxymethyl)-N-(6-(5-(methoxymethyl)-1,2,4-oxadiazol-3-yl)-2,3-dihydrobenzofuran-3-yl)isonicotinamide] | 1400 nM | 5500 nM
30 | CCc1nc(-c2ccc3c(c2)CC[C@H]3NC(=O)c2cccc(C(C)O)c2)no1 (stereo partly drawn) [Compound 715, N-((R)-5-(5-ethyl-1,2,4-oxadiazol-3-yl)-2,3-dihydro-1H-inden-1-yl)-3-(1-hydroxyethyl)benzamide] | 400 nM | 1500 nM
